The NIST ThermoML archive (doi:10.1021/je060247x)

Conditions: Liquid

CCCCn1cc[n+](C)c1.O=S(=O)([O-])C(F)(F)F [1-butyl-3-methylimidazolium trifluoromethanesulfonate]
mass density [kg/m3]
Conditions	100 kPa	1000 kPa	2000 kPa	3000 kPa	4000 kPa	5000 kPa	10000 kPa
293.15 K	1306.1	1306.6	1307.1	1307.7	1308.2	1308.8	1311.5
303.15 K	1296.6	1297.1	1297.7	1298.3	1298.9	1299.5	1302.3
313.15 K	1287.6	1288.1	1288.7	1289.3	1289.9	1290.5	1293.3
323.15 K	1278.7	1279.3	1280	1280.7	1281.3	1282	1285
333.15 K	1270.5	1271.1	1271.7	1272.4	1273.1	1273.8	1276.9
343.15 K	1262.5	1263.1	1263.8	1264.5	1265.2	1265.8	1269.1
353.15 K	1254	1254.7	1255.3	1256	1256.7	1257.4	1260.7
363.15 K	1246.8	1247.5	1248.3	1249	1249.7	1250.4	1253.8
373.15 K	1239.6	1240.3	1241.1	1241.8	1242.5	1243.2	1246.6
383.15 K	1232.4	1233.1	1233.9	1234.6	1235.4	1236.1	1239.7
393.15 K	1225.3	1226.1	1226.8	1227.6	1228.4	1229.1	1232.7

CCCCn1cc[n+](C)c1.F[B-](F)(F)F [1-butyl-3-methylimidazolium tetrafluoroborate]
mass density [kg/m3]
Conditions	100 kPa	1000 kPa	2000 kPa	3000 kPa	4000 kPa	5000 kPa	10000 kPa
293.15 K	1206.9	1207.3	1207.7	1208.2	1208.7	1209.1	1211.3
303.15 K	1198.6	1199.1	1199.6	1200.1	1200.7	1201.1	1203.5
313.15 K	1190.8	1191.3	1191.8	1192.2	1192.7	1193.2	1195.5
323.15 K	1183	1183.5	1184	1184.5	1185	1185.5	1187.8
333.15 K	1175.8	1176.3	1176.9	1177.4	1177.9	1178.4	1181
343.15 K	1168.4	1168.9	1169.3	1169.8	1170.3	1170.8	1173.1
353.15 K	1161.3	1161.8	1162.4	1163	1163.5	1164.1	1166.6
363.15 K	1154.7	1155.3	1155.8	1156.4	1156.9	1157.5	1160.1
373.15 K	1148.2	1148.8	1149.3	1149.9	1150.4	1151	1153.6
383.15 K	1142	1142.5	1143.1	1143.7	1144.3	1144.8	1147.6
393.15 K	1136.1	1136.7	1137.3	1137.9	1138.4	1139	1141.9

CCCCCCCC[n+]1ccn(C)c1.F[P-](F)(F)(F)(F)F [1-octyl-3-methylimidazolium hexafluorophosphate]
mass density [kg/m3]
Conditions	100 kPa	1000 kPa	2000 kPa	3000 kPa	4000 kPa	5000 kPa	10000 kPa
293.15 K	1242.4	1242.9	1243.5	1244.1	1244.6	1245.1	1247.8
303.15 K	1233.8	1234.4	1235	1235.6	1236.1	1236.7	1239.5
313.15 K	1225.3	1225.9	1226.5	1227.1	1227.7	1228.3	1231.1
323.15 K	1217.6	1218.2	1218.8	1219.4	1220	1220.6	1223.4
333.15 K	1209.1	1209.7	1210.3	1211	1211.6	1212.2	1215.1
343.15 K	1201	1201.6	1202.3	1203	1203.6	1204.3	1207.4
353.15 K	1193.6	1194.3	1195	1195.7	1196.3	1197.1	1200.3
363.15 K	1186.2	1186.9	1187.6	1188.3	1189	1189.7	1193
373.15 K	1179.2	1179.9	1180.6	1181.3	1182	1182.7	1186.1
383.15 K	1172.7	1173.5	1174.2	1174.9	1175.6	1176.3	1179.8
393.15 K	1166	1166.8	1167.5	1168.3	1169.1	1169.8	1173.5
